Measured values taken from PMC8776063, “Aurora Kinase A Is Involved in Controlling the Localization of Aquaporin-2 in Renal Principal Cells” (International Journal of Molecular Sciences, 2022).

Key:
[1] = target: T1, AAK1 (Homo sapiens, UniProt Q2M2I8); test: Thermal shift assay; assay type: binding; details: compound 10 µM; n = 3; read-out: ΔTm AAK1
T1 construct: purchased in-house thermal shift (DSF) kinase panel (SGC Frankfurt); Promega NanoBRET for AURKA/B/C

[2] = target: T2, CAMK1G (Homo sapiens, UniProt Q96NX5); test: Thermal shift assay; assay type: binding; details: compound 10 µM; n = 3; read-out: ΔTm CAMK1G
T2 construct: purchased in-house thermal shift (DSF) kinase panel (SGC Frankfurt); Promega NanoBRET for AURKA/B/C
T2 sequence (Q96NX5 23-277): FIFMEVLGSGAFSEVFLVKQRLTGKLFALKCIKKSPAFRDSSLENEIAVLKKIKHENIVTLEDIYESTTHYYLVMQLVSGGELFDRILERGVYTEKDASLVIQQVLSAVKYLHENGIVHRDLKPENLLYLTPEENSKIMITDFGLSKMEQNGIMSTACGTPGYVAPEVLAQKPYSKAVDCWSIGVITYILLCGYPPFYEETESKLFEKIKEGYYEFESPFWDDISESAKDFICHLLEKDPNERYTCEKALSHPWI

[3] = target: T3, CLK1 (Homo sapiens, UniProt P49759); test: Thermal shift assay; assay type: binding; details: compound 10 µM; n = 3; read-out: ΔTm CLK1
T3 construct: purchased in-house thermal shift (DSF) kinase panel (SGC Frankfurt); Promega NanoBRET for AURKA/B/C
T3 sequence (P49759 148-484): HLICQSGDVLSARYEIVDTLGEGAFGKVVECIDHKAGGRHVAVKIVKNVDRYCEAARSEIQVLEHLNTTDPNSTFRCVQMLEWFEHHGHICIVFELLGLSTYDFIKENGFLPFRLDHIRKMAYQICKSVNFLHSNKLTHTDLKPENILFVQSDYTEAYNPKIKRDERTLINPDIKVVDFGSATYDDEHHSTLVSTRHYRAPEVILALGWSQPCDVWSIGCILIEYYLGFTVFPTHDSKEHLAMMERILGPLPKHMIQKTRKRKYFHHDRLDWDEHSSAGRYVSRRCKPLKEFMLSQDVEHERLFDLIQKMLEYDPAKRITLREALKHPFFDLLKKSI

[4] = target: T4, CSNK2A1 (Homo sapiens, UniProt P68400); test: Thermal shift assay; assay type: binding; details: compound 10 µM; n = 3; read-out: ΔTm CSNK2A1
T4 construct: purchased in-house thermal shift (DSF) kinase panel (SGC Frankfurt); Promega NanoBRET for AURKA/B/C
T4 sequence (P68400 1-337): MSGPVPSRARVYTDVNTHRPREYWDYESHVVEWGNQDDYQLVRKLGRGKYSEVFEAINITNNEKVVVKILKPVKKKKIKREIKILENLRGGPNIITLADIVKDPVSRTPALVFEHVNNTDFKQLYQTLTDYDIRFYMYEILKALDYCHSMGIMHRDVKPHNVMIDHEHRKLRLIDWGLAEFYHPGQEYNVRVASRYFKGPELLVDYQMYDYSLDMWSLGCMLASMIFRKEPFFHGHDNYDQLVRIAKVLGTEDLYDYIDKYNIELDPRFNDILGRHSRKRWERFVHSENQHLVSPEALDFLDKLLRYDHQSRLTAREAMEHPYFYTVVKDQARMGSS

[5] = target: T5, GAK (Homo sapiens, UniProt O14976); test: Thermal shift assay; assay type: binding; details: compound 10 µM; n = 3; read-out: ΔTm GAK
T5 construct: purchased in-house thermal shift (DSF) kinase panel (SGC Frankfurt); Promega NanoBRET for AURKA/B/C
T5 sequence (O14976 14-351): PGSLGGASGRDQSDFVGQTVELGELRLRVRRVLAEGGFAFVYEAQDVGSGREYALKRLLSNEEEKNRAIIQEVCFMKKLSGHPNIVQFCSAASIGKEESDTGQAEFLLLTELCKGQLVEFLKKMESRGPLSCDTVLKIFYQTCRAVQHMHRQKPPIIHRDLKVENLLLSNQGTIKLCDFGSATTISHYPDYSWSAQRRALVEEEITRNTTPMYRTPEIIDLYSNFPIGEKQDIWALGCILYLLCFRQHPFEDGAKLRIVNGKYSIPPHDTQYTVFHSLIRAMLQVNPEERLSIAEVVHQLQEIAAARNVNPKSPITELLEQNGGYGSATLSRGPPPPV

[6] = target: T6, GSK3B (Homo sapiens, UniProt P49841); test: Thermal shift assay; assay type: binding; details: compound 10 µM; n = 3; read-out: ΔTm GSK3B
T6 construct: purchased in-house thermal shift (DSF) kinase panel (SGC Frankfurt); Promega NanoBRET for AURKA/B/C
T6 sequence (P49841 35-386): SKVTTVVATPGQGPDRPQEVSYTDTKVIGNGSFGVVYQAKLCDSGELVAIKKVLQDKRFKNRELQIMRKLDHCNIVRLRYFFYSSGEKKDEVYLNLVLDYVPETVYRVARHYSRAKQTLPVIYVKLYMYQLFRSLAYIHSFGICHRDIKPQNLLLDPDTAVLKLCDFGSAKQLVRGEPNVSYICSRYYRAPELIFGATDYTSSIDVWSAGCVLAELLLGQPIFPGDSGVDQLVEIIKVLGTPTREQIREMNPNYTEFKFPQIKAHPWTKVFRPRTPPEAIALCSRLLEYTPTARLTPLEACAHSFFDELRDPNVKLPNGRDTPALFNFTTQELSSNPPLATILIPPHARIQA

[7] = target: T7, MAP2K1 (Homo sapiens, UniProt Q02750); test: Thermal shift assay; assay type: binding; details: compound 10 µM; n = 3; read-out: ΔTm MAP2K1
T7 construct: purchased in-house thermal shift (DSF) kinase panel (SGC Frankfurt); Promega NanoBRET for AURKA/B/C
T7 sequence (Q02750 68-361): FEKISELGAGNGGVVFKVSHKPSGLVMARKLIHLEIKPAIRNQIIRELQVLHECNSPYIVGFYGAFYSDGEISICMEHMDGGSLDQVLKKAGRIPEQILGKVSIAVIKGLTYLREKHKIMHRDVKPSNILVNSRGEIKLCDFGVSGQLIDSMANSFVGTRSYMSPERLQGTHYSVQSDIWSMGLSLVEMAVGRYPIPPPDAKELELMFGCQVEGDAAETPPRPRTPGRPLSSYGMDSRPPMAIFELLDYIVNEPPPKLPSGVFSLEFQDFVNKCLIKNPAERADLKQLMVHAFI

[8] = target: T8, MAP2K6 (Homo sapiens, UniProt P52564); test: Thermal shift assay; assay type: binding; details: compound 10 µM; n = 3; read-out: ΔTm MAP2K6
T8 construct: purchased in-house thermal shift (DSF) kinase panel (SGC Frankfurt); Promega NanoBRET for AURKA/B/C
T8 sequence (P52564 47-334): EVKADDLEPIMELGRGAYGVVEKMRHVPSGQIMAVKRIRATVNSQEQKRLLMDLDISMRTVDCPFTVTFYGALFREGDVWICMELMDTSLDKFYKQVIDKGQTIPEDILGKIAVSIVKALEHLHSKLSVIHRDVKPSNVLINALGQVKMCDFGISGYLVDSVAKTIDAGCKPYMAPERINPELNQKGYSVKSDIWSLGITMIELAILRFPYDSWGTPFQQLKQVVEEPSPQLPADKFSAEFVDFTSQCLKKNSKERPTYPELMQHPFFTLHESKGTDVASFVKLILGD

[9] = target: T9, MAPK8 (Homo sapiens, UniProt P45983); test: Thermal shift assay; assay type: binding; details: compound 10 µM; n = 3; read-out: ΔTm MAPK8
T9 construct: purchased in-house thermal shift (DSF) kinase panel (SGC Frankfurt); Promega NanoBRET for AURKA/B/C
T9 sequence (P45983 1-364): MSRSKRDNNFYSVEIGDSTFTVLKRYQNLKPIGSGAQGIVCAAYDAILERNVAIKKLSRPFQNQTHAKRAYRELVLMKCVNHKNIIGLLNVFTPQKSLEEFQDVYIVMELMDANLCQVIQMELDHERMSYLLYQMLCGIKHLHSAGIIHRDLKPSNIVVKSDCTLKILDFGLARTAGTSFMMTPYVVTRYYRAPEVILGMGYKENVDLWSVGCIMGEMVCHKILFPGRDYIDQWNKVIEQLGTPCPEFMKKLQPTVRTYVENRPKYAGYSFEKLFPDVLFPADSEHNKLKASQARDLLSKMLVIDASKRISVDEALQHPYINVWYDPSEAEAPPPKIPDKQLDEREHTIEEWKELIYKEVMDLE

[10] = target: T10, MAPK9 (Homo sapiens, UniProt P45984); test: Thermal shift assay; assay type: binding; details: compound 10 µM; n = 3; read-out: ΔTm MAPK9
T10 construct: purchased in-house thermal shift (DSF) kinase panel (SGC Frankfurt); Promega NanoBRET for AURKA/B/C
T10 sequence (P45984 whole entry): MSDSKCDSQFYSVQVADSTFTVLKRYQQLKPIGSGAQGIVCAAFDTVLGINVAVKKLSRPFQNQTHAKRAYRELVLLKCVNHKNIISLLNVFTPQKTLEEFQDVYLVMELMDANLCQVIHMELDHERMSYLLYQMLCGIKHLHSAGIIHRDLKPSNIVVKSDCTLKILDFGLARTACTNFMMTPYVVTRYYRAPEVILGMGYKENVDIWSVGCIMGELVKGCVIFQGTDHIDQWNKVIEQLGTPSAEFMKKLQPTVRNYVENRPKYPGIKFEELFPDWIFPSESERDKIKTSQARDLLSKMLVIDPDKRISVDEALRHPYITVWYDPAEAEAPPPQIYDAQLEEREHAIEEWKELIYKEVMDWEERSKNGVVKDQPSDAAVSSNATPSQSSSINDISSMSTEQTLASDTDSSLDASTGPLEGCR

[11] = target: T11, PAK1 (Homo sapiens, UniProt Q13153); test: Thermal shift assay; assay type: binding; details: compound 10 µM; n = 3; read-out: ΔTm PAK1
T11 construct: purchased in-house thermal shift (DSF) kinase panel (SGC Frankfurt); Promega NanoBRET for AURKA/B/C
T11 sequence (Q13153 249-545): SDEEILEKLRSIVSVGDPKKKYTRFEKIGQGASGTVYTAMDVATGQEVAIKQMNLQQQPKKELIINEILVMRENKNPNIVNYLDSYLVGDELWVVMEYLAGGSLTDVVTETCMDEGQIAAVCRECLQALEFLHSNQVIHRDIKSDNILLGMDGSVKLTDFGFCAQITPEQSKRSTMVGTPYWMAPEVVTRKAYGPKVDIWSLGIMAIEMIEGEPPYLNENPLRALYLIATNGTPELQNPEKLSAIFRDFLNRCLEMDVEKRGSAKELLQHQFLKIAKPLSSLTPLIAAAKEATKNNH

[12] = target: T12, STK17A (Homo sapiens, UniProt Q9UEE5); test: Thermal shift assay; assay type: binding; details: compound 10 µM; n = 3; read-out: ΔTm STK17A
T12 construct: purchased in-house thermal shift (DSF) kinase panel (SGC Frankfurt); Promega NanoBRET for AURKA/B/C
T12 sequence (Q9UEE5 61-321): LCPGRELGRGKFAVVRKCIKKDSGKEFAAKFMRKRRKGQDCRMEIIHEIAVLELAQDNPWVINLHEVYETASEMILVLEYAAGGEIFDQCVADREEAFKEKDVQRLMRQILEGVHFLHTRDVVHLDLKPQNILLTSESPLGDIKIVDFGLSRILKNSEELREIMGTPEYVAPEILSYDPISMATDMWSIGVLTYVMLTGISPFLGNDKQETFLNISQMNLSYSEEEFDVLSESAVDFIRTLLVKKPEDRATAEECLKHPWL

[13] = target: T13, TTK (Homo sapiens, UniProt P33981); test: Thermal shift assay; assay type: binding; details: compound 10 µM; n = 3; read-out: ΔTm TTK
T13 construct: purchased in-house thermal shift (DSF) kinase panel (SGC Frankfurt); Promega NanoBRET for AURKA/B/C
T13 sequence (P33981 519-808): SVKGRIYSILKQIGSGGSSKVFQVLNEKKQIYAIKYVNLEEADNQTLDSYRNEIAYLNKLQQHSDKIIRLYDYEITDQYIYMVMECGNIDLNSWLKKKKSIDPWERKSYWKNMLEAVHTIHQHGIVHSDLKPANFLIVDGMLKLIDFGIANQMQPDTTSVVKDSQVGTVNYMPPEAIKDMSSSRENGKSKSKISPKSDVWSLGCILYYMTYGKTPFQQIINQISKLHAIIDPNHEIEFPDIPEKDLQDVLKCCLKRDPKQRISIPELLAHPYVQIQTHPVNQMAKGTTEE

[14] = target: T14, VRK1 (Homo sapiens, UniProt Q99986); test: Thermal shift assay; assay type: binding; details: compound 10 µM; n = 3; read-out: ΔTm VRK1
T14 construct: purchased in-house thermal shift (DSF) kinase panel (SGC Frankfurt); Promega NanoBRET for AURKA/B/C
T14 sequence (Q99986 1-396): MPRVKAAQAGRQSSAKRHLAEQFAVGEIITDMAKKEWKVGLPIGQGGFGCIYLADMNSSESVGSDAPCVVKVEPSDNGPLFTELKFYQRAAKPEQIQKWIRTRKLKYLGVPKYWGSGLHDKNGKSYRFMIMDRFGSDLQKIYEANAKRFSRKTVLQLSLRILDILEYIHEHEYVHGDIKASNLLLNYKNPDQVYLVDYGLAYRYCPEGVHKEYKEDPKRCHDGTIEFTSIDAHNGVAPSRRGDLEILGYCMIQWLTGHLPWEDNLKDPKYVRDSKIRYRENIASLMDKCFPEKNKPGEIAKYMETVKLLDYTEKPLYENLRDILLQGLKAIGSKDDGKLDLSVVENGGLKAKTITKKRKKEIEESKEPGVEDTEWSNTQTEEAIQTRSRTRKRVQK

[15] = tested on: MCD4 cells; test: F-actin stress fiber staining (phalloidin); assay type: cell-based, mouse; details: compound 30 µM, 1 h
[16] = tested on: primary IMCD cells; test: F-actin stress fiber staining (phalloidin); assay type: cell-based, rat; details: compound 20 µM, 1 h
[17] = tested on: MCD4 cells; test: AQP2 redistribution, immunofluorescence microscopy; details: compound 30 µM, 1 h (Aurora-A inhibitor I 1-30 µM), forskolin 30 µM, 30 min

T1 sequence (Q2M2I8 27-365): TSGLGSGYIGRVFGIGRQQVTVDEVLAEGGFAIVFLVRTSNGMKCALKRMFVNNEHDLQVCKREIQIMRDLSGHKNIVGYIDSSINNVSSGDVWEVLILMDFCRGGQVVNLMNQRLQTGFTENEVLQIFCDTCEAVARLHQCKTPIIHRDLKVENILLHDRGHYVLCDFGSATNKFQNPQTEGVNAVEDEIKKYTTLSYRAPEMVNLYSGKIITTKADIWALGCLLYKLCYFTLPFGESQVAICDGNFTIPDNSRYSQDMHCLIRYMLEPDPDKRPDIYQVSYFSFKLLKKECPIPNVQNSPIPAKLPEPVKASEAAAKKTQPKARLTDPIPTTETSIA

| Structure (SMILES) | ΔTm at 10 µM [1] [°C] | ΔTm at 10 µM [2] [°C] | ΔTm at 10 µM [3] [°C] | ΔTm at 10 µM [4] [°C] | ΔTm at 10 µM [5] [°C] | ΔTm at 10 µM [6] [°C] | ΔTm at 10 µM [7] [°C] | ΔTm at 10 µM [8] [°C] | ΔTm at 10 µM [9] [°C] | ΔTm at 10 µM [10] [°C] | ΔTm at 10 µM [11] [°C] | ΔTm at 10 µM [12] [°C] | ΔTm at 10 µM [13] [°C] | ΔTm at 10 µM [14] [°C] | effect on actin stress fibers [15] | effect on actin stress fibers [16] | inhibition of the forskolin-induced redistribution of AQP2 to the plasma membrane [17] |
| --- | --- | --- | --- | --- | --- | --- | --- | --- | --- | --- | --- | --- | --- | --- | --- | --- | --- |
| CCN1CCN(C(=O)Cc2ccc(Nc3ncc(F)c(Nc4ccc(C(=O)O)cc4)n3)cc2)CC1 [ERJ2-12] | 3.8 | 0.2 | 0.5 | 1.3 | 2.7 | 1 | -0.1 | 0.8 | 4.2 | 3 | 0.2 | 0.4 | 0.6 | 0.1 | resembled those of the control cells | resembled those of the control cells | not different from that in cells treated with the compound solvent, DMSO |
| NC(=O)Cc1ccc(Nc2ncc(F)c(Nc3ccc(C(=O)Nc4ccccc4Cl)cc3)n2)cc1 [ERJ2-06] | 6.8 | 1.2 | 1.7 | 1.6 | 5.1 | 3.1 | 0 | 0.8 | 3.7 | 2.9 | 0.7 | 2.2 | 2.4 | 0.2 | Comparable effects | Comparable effects |  |
